Source: patent publication US20070049593A1 (priority 2004, published 2007)
Structures can show the parent of a compound that is named as a salt.

Each compound was assayed against T1, HCV polymerase (Hepatitis C virus genotype 1b, UniProt P26663) (assay: biochemical). Conditions: not given.
T1 construct: a region encoding NS5B (J Virol 1991 March, 65(3), 1105-13, 544 amino acids after deletion of 47 amino acids on the C-terminal); 6xHis (C); made in house; host or cells: Escherichia coli
T1 sequence (P26663 2420-2963): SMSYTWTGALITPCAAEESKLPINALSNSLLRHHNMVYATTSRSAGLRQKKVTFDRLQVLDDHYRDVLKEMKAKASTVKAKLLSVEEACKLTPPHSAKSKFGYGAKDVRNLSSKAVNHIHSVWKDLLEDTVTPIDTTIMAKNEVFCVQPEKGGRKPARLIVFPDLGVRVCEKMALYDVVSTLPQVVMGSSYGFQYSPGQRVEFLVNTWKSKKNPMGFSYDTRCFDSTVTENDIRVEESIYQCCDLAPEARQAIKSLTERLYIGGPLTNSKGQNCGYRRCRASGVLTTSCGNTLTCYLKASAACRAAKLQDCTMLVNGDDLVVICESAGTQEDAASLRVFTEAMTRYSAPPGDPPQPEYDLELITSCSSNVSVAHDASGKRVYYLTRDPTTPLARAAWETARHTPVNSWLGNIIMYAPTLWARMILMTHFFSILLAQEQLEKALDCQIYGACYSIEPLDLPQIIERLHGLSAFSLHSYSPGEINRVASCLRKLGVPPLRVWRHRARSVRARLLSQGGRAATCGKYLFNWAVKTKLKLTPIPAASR
Set-up: species or system HCV BK strain
In short: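 His-tagged NS5B (BK strain, 47-aa C-terminal deletion, E. coli-expressed) at 0.5 μg/ml copied 5 μg/ml run-off RNA bearing the HCV 3′ UTR with 2 μM UTP plus [3H]UTP, 50 μM ATP/GTP, in pH 7.5 Tris with 5 mM MgCl2, 25 °C, 90 min. TCA-precipitated RNA was counted and IC50 calculated.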
`CCOCC1CCCN(CCN2CCn3c(c(C4CCCCC4)c4ccc(C(=O)O)cc43)-c3ccc(C)cc32)C1` (stereo not shown) [Example 1-392, 13-cyclohexyl-5-[2-(3-ethoxymethylpiperidin-1-yl)ethyl]-3-methyl-6,7-dihydro-5H-benzo[5,6][1,4]diazepino[7,1-a]indole-10-carboxylic acid dihydrochloride] showed an IC50 of less than 100 nM. Compound `CC(C)OC1CCCN(CCN2CCn3c(c(C4CCCCC4)c4ccc(C(=O)O)cc43)-c3ccc(Cl)cc32)C1` (stereo not shown) [Example 1-393, 3-chloro-13-cyclohexyl-5-[2-(3-isopropoxypiperidin-1-yl)ethyl]-6,7-dihydro-5H-benzo[5,6][1,4]diazepino[7,1-a]indole-10-carboxylic acid monohydrochloride] has an IC50 of less than 100 nM. Work on `Cc1ccc2c(c1)N(CCN1CCCC(OC(C)C)C1)CCn1c-2c(C2CCCCC2)c2ccc(C(=O)O)cc21` (stereo not shown) [Example 1-394, 13-cyclohexyl-5-[2-(3-isopropoxypiperidin-1-yl)ethyl]-3-methyl-6,7-dihydro-5H-benzo[5,6][1,4]diazepino[7,1-a]indole-10-carboxylic acid monohydrochloride] yielded an IC50 of less than 100 nM. With `CC(C)OC1CCCN(CCN2CCn3c(c(C4CCCCC4)c4ccc(C(=O)O)cc43)-c3ccccc32)C1` (stereo not shown) [Example 1-395, 13-cyclohexyl-5-[2-(3-isopropoxypiperidin-1-yl)ethyl]-6,7-dihydro-5H-benzo[5,6][1,4]diazepino[7,1-a]indole-10-carboxylic acid monohydrochloride] the IC50 was less than 100 nM. `CC(C)N1CCCC(CCCN2CCn3c(c(C4CCCCC4)c4ccc(C(=O)O)cc43)-c3ccc(Cl)cc32)C1` (stereo not shown) [Example 1-396, 3-chloro-13-cyclohexyl-5-[3-(1-isopropylpiperidin-3-yl)propyl]-6,7-dihydro-5H-benzo[5,6][1,4]diazepino[7,1-a]indole-10-carboxylic acid dihydrochloride] showed an IC50 of less than 100 nM. For `COCC[C@@H]1CCCN(CCN2CCn3c(c(C4CCCCC4)c4ccc(C(=O)O)cc43)-c3ccc(Cl)cc32)C1` [Example 1-397, 3-chloro-13-cyclohexyl-5-{2-[(S)-3-(2-methoxyethyl)piperidin-1-yl]ethyl}-6,7-dihydro-5H-benzo[5,6][1,4]diazepino[7,1-a]indole-10-carboxylic acid dihydrochloride], the IC50 was less than 100 nM. For `COCC[C@H]1CCCN(CCN2CCn3c(c(C4CCCCC4)c4ccc(C(=O)O)cc43)-c3ccc(Cl)cc32)C1` [Example 1-398, 3-chloro-13-cyclohexyl-5-{2-[(R)-3-(2-methoxyethyl)piperidin-1-yl]ethyl}-6,7-dihydro-5H-benzo[5,6][1,4]diazepino[7,1-a]indole-10-carboxylic acid dihydrochloride], the IC50 was less than 100 nM. Work on `O=C(O)c1ccc2c(C3CCCC3)c3n(c2c1)CCN(CCN1CCCCC1)c1ccccc1-3` [Example 1-399, 13-cyclopentyl-5-[2-(piperidin-1-yl)ethyl]-6,7-dihydro-5H-benzo[5,6][1,4]diazepino[7,1-a]indole-10-carboxylic acid monohydrochloride] yielded an IC50 of less than 100 nM. In the case of `CCN1CCCC(OCCN2CCn3c(c(C4CCCCC4)c4ccc(C(=O)O)cc43)-c3ccc(Cl)cc32)C1` (stereo not shown) [Example 1-400, 3-chloro-13-cyclohexyl-5-[2-(1-ethylpiperidin-3-yloxy)ethyl]-6,7-dihydro-5H-benzo[5,6][1,4]diazepino[7,1-a]indole-10-carboxylic acid dihydrochloride], the IC50 is reported as less than 100 nM. For `Cc1nc(COc2ccc3c(c2)N(CCN2CCCCC2)CCn2c-3c(C3CCCCC3)c3ccc(C(=O)O)cc32)cs1` [Example 1-401, 13-cyclohexyl-3-(2-methylthiazol-4-ylmethoxy)-5-[2-(piperidin-1-yl)ethyl]-6,7-dihydro-5H-benzo[5,6][1,4]diazepino[7,1-a]indole-10-carboxylic acid dihydrochloride], the IC50 was less than 100 nM. `Cc1nc(C)c(COc2ccc3c(c2)N(CCN2CCCCC2)CCn2c-3c(C3CCCCC3)c3ccc(C(=O)O)cc32)s1` [Example 1-402, 13-cyclohexyl-3-(2,4-dimethylthiazol-5-ylmethoxy)-5-[2-(piperidin-1-yl)ethyl]-6,7-dihydro-5H-benzo[5,6][1,4]diazepino[7,1-a]indole-10-carboxylic acid dihydrochloride] showed an IC50 of less than 100 nM. `CCN(CCCN1CCn2c(c(C3CCCCC3)c3ccc(C(=O)O)cc32)-c2ccc(Cl)cc21)C(C)C` [Example 1-403, 3-chloro-13-cyclohexyl-5-[3-(N-ethyl-N-isopropylamino)propyl]-6,7-dihydro-5H-benzo[5,6][1,4]diazepino[7,1-a]indole-10-carboxylic acid dihydrochloride] gave an IC50 of less than 100 nM. `O=C(O)c1ccc2c(C3CCCCC3)c3n(c2c1)CCN(CC[C@@H]1CCCN(C2CCCC2)C1)c1cc(Cl)ccc1-3` [Example 1-404, 3-chloro-13-cyclohexyl-5-[2-((S)-1-cyclopentylpiperidin-3-yl)ethyl]-6,7-dihydro-5H-benzo[5,6][1,4]diazepino[7,1-a]indole-10-carboxylic acid dihydrochloride] showed an IC50 of less than 100 nM. For `CC(C)OCC1CCCN(CCN2CCn3c(c(C4CCCCC4)c4ccc(C(=O)O)cc43)-c3ccccc32)C1` (stereo not shown) [Example 1-405, 13-cyclohexyl-5-[2-(3-isopropoxymethylpiperidin-1-yl)ethyl]-6,7-dihydro-5H-benzo[5,6][1,4]diazepino[7,1-a]indole-10-carboxylic acid dihydrochloride], the IC50 was less than 100 nM. `CC(C)OCC1CCCN(CCN2CCn3c(c(C4CCCCC4)c4ccc(C(=O)O)cc43)-c3ccc(Cl)cc32)C1` (stereo not shown) [Example 1-406, 3-chloro-13-cyclohexyl-5-[2-(3-isopropoxymethylpiperidin-1-yl)ethyl]-6,7-dihydro-5H-benzo[5,6][1,4]diazepino[7,1-a]indole-10-carboxylic acid dihydrochloride] was tested, and the IC50 was less than 100 nM. `Cc1ccc2c(c1)N(CCN1CCCC(COC(C)C)C1)CCn1c-2c(C2CCCCC2)c2ccc(C(=O)O)cc21` (stereo not shown) [Example 1-407, 13-cyclohexyl-5-[2-(3-isopropoxymethylpiperidin-1-yl)ethyl]-3-methyl-6,7-dihydro-5H-benzo[5,6][1,4]diazepino[7,1-a]indole-10-carboxylic acid dihydrochloride] showed an IC50 of less than 100 nM. For `O=C(O)c1ccc2c(C3CCCCC3)c3n(c2c1)CCN(CC[C@H]1CCCN(C2CCCC2)C1)c1cc(Cl)ccc1-3` [Example 1-408, 3-chloro-13-cyclohexyl-5-[2-((R)-1-cyclopentylpiperidin-3-yl)ethyl]-6,7-dihydro-5H-benzo[5,6][1,4]diazepino[7,1-a]indole-10-carboxylic acid dihydrochloride], the IC50 was less than 100 nM. `COCC[C@H]1CCCN(CCN2CCn3c(c(C4CCCCC4)c4ccc(C(=O)O)cc43)-c3ccc(C)cc32)C1` [Example 1-409, 13-cyclohexyl-5-{2-[(R)-3-(2-methoxyethyl)piperidin-1-yl]ethyl}-3-methyl-6,7-dihydro-5H-benzo[5,6][1,4]diazepino[7,1-a]indole-10-carboxylic acid dihydrochloride] gave an IC50 of less than 100 nM. `CCCN1CCCC(CCN2CCn3c(c(C4CCCCC4)c4ccc(C(=O)O)cc43)-c3ccc(C)cc32)C1` (stereo not shown) [Example 1-410, 13-cyclohexyl-3-methyl-5-[2-(1-propylpiperidin-3-yl)ethyl]-6,7-dihydro-5H-benzo[5,6][1,4]diazepino[7,1-a]indole-10-carboxylic acid dihydrochloride] was tested, and the IC50 was less than 100 nM. `CCN1CCCC(CCCN2CCn3c(c(C4CCCCC4)c4ccc(C(=O)O)cc43)-c3ccc(Cl)cc32)C1` (stereo not shown) [Example 1-411, 3-chloro-13-cyclohexyl-5-[3-(1-ethylpiperidin-3-yl)propyl]-6,7-dihydro-5H-benzo[5,6][1,4]diazepino[7,1-a]indole-10-carboxylic acid dihydrochloride] was tested, and the IC50 was less than 100 nM. Work on `O=C(O)c1ccc2c(C3CCCCC3)c3n(c2c1)CCN(CCCC1CCCN(C2CCCC2)C1)c1cc(Cl)ccc1-3` (stereo not shown) [Example 1-412, 3-chloro-13-cyclohexyl-5-[3-(1-cyclopentylpiperidin-3-yl)propyl]-6,7-dihydro-5H-benzo[5,6][1,4]diazepino[7,1-a]indole-10-carboxylic acid dihydrochloride] yielded an IC50 of less than 100 nM. `COCC[C@@H]1CCCN(CCN2CCn3c(c(C4CCCCC4)c4ccc(C(=O)O)cc43)-c3ccc(C)cc32)C1` [Example 1-413, 13-cyclohexyl-5-{2-[(S)-3-(2-methoxyethyl)piperidin-1-yl]ethyl}-3-methyl-6,7-dihydro-5H-benzo[5,6][1,4]diazepino[7,1-a]indole-10-carboxylic acid dihydrochloride] was tested, and the IC50 was less than 100 nM. With `CC(C)N1CCCC(CCN2CCn3c(c(C4CCCC4)c4ccc(C(=O)O)cc43)-c3ccc(Cl)cc32)C1` (stereo not shown) [Example 1-414, 3-chloro-13-cyclopentyl-5-[2-(1-isopropylpiperidin-3-yl)ethyl]-6,7-dihydro-5H-benzo[5,6][1,4]diazepino[7,1-a]indole-10-carboxylic acid monohydrochloride] the IC50 was less than 100 nM. `O=C(O)c1ccc2c(C3CCCCC3)c3n(c2c1)CCN(CCCCN1CCCCC1)c1cc(Cl)ccc1-3` [Example 1-415, 3-chloro-13-cyclohexyl-5-[4-(piperidin-1-yl)butyl]-6,7-dihydro-5H-benzo[5,6][1,4]diazepino[7,1-a]indole-10-carboxylic acid] was tested, and the IC50 was less than 100 nM.

Same assay, conditions: read-out: HCV polymerase inhibitory activity IC50; 25° C., 90 min; [5,6-3H]UTP incorporation into RNA
Work on `COC[C@@H]1CCCN(CCN2CCn3c(c(C4CCCCC4)c4ccc(C(=O)O)cc43)-c3ccc(C)cc32)C1` [Example 1-416, 13-cyclohexyl-5-[2-((R)-3-methoxymethylpiperidin-1-yl)ethyl]-3-methyl-6,7-dihydro-5H-benzo[5,6][1,4]diazepino[7,1-a]indole-10-carboxylic acid dihydrochloride] yielded an IC50 of less than 100 nM.
